Test results: publication PMC12210912, “Pharmacologic properties and inhibitory activity of 6-azasteroids against Mycobacterium leprae in vivo and in vitro” (Microbiology Spectrum, 2025)

Experiments:
[1] = in vivo pharmacokinetics in CD1 male mice; settings: for bioavailability: male, CD1, mouse, oral, 5 mg/kg, read-out: F (bioavailability); for Cmax / Tmax / half-life: mouse
Description: Experiments were performed by Pharmaron, Inc. The metabolism and pharmacokinetics of the 6-azasteroids were studied in CD1 male mice approximately 8 weeks old and 20–30 g. […] Each group contained three mice. Blood samples were collected in anticoagulant tubes containing potassium ethylenediaminetetraacetic acid.
Four quality control samples (1, 2, 50, and 800 ng/mL) for plasma were prepared independently of those used for the calibration curves. These quality control samples were prepared on the day of analysis in the same way as the calibration standards. An aliquot (33 µL) of each standard, quality control sample, and unknown sample (30 µL of plasma combined with 3 µL of blank solution) was added to 200 µL of acetonitrile containing an internal standard mixture for precipitating protein. […] The supernatant was diluted three times with water. Diluted supernatant (5 µL) was quantitatively analyzed by LC-MS/MS (API 4000 Triple Quad—AB Sciex, Canada; LC-30A HPLC—Shimadzu, Japan). Non-compartmental pharmacokinetic analysis was performed with Phoenix WinNonlin software (ver. 6.1, Certara, US) using composite data.

M. leprae [2] = assay: M. leprae viability in axenic medium by radiorespirometry; assay type: cell-based, Mycobacterium leprae
M. leprae 3β-HSD = assay: NAD+ reduction by M. leprae whole cell lysate; assay type: biochemical, Mycobacterium leprae; settings: M. leprae WCL with 200 µM cholesterol, vehicle DMSO mean 1.119
Description: M. leprae whole cell lysate (WCL) was obtained by bead-beating gamma-irradiated M. leprae Strain NHDP (BEI Resources, NR-19326) with 0.1 mm silica beads and FastPrep bead-beater (MP Biomedicals, USA). Homogenization was carried out in three cycles of agitation at 6.5 m/s for 45 s, with the sample being rested on ice for at least 2 min between cycles. The homogenates were centrifuged at 14,000 × g for 5 min to separate the spheres and WCL. The supernatant was recovered, and protein concentration determined using Pierce BCA protein assay (Thermo Fisher Scientific). NAD^+ (200 µM, MilliporeSigma, USA) reduction was measured as previously described using 50 µg (protein) of WCL protein, with the addition of 200 µM of cholesterol (MilliporeSigma) and in the presence or absence of compound 2 (40 and 100 µM) or compound 5 (100 µM) ([10]).

M. leprae [3] = assay: Shepard's mouse footpad model: bacilli count and molecular viability; assay type: in vivo, Mycobacterium leprae; settings: for M. leprae molecular viability, median (16S rRNA cDNA/DNA, RT-qPCR) / M. leprae molecular viability: Balb/c mice footpad; for M. leprae molecular viability, median (16S rRNA cDNA/DNA, RT-qPCR): 50 mg/kg daily alone, 1 month; for M. leprae molecular viability: 50 mg/kg daily in combination with sub-inhibitory rifampicin 1 mg/kg; for bacillary load in footpad, median: Balb/c mice, 50 mg/kg daily by gavage alone, 1 month (20 doses), vehicle median 8.110 × 10^4
Description: Animal experimentation was conducted under approval by the ILSL ethical committee ([…] 02/19). Balb/c female mice with 8-week-old were inoculated with 5 × 10^3 live M. leprae bacilli, strain Thai-53, in both hind footpads, as previously described for the Shepard's model ([25]). Eight groups were tested in the experiment: (i) M. leprae control group (n = 5) inoculated with M. leprae and no additional treatment; (ii) vehicle control group (n = 4) inoculated with M. leprae and treatment with vehicle of the drugs; (iii) regular rifampicin treatment, 10 mg/Kg dose; […] (v) compound 2 treatment (n = 4), 50 mg/kg dose; […] One month after inoculation, mice from the control group were euthanized and the hind footpad was collected to assess the establishment of the infection by bacillary enumeration. At that time point, vehicle or drug treatment was started for the remaining groups. All compounds were administrated by gavage, rifampicin was administered weekly, and the compounds were administered daily (excluding weekends) for 1 month (20 doses). Mice were euthanized 6 h after administration of the last dose, and blood was collected in heparin-coated tubes by cardiac puncture for blood enzyme evaluation and compound 5 measurement by LC/MS in the plasma. The infected hind footpads from each group of mice were excised, homogenized and bacilli enumerated in a 100 μL aliquot as previously described ([26]). The remaining homogenate was centrifuged at 12,000 × g for 15 min, the supernatant was discarded, and the pellet was suspended in 750 μL of RNA later solution (Thermo Fisher Scientific). The homogenized tissue pellet was incubated at 4°C for 16 h and stored at -80°C until determination of M. leprae viability was performed by RT-qPCR ([27], [28]). […] RNA and DNA extractions were performed as previously described ([10], [27]). RNA samples were treated with the Turbo DNA-free kit (Thermo Fisher Scientific), and 1,000 ng of DNAse-treated RNA was then used to synthesize the cDNA using the GoScript kit (Promega, USA).

HepG2 cells = settings: cited from earlier work
in vivo = settings: female, Balb/c, mouse, po, 100 mg/kg
Description: Compound 5 was solubilized in 5% DMSO in 10% Solutol with 100 mM citrate buffer (pH 3) and was tested in Balb/c female mice, approximately 8 weeks old and 20 g, at 100 mg/kg with or without 10 mg/kg rifampicin. Mice (n = 3 per group) were treated PO with drug or vehicle once daily at 8 AM. Body weights were measured daily prior to dosing. […] On day 5, mice were sacrificed at 6 h post-dose, and whole blood and plasma were extracted for complete blood count and blood chemistry profiling on an Element HT5 system (Heska, USA) and plasma drug concentration analysis was performed by LC-MS (Sciex API 4500 Triple Quad, Shimadzu LC-30A). Calibration curves were prepared as described above for in vivo metabolism and pharmacokinetics.

[4] = plasma, 5 mg/kg PO vs 1 mg/kg IV

CC(C)(C)c1ccc(C(C)(C)C)c(NC(=O)C2CCC3C4CNC5=CC(=O)CC[C@]5(C)C4CC[C@]23C)c1 (stereo partly shown) [Compound 1]
AUCinf ([1]; 1 mg/kg IV): 356 ng·h/g
Clobs (observed clearance) ([1]; 1 mg/kg IV): 46.8 (mL/min)/kg
AUCinf ([1]; 5 mg/kg PO, plasma): 822.1 ng·h/g
time by which most of the compound was cleared from plasma ([1]; PO administration): ≤ 4 h
bioavailability [1, 4]: 46.2%
Cmax ([1]; 5 mg/kg PO, plasma): 501 ng/mL
Tmax ([1]; 5 mg/kg PO, plasma): 30 min
half-life ([1]; 5 mg/kg PO, plasma): 60 min
Cmax ([1]; plasma, 1 mg/kg IV): 803 ng/mL
Tmax ([1]; plasma, 1 mg/kg IV): 38.5 min

CCCN1CC2C3CCC(C(=O)Nc4cc(C(C)(C)C)ccc4C(C)(C)C)[C@@]3(C)CCC2[C@@]2(C)CCC(=O)C=C12 (stereo partly shown) [Compound 2]
effect on M. leprae viability (radiorespirometry) (M. leprae [2]; 40 µM): did not significantly affect M. leprae viability
effect on M. leprae viability (radiorespirometry) (M. leprae [2]; 100 µM): drastically reduced M. leprae viability
rate of NAD+ reduction, mean value (ratio absorbance T/absorbance T0) (M. leprae 3β-HSD; 40 µM): 0.9986
rate of NAD+ reduction, mean value (ratio absorbance T/absorbance T0) (M. leprae 3β-HSD; 100 µM): 1.038
M. leprae molecular viability, median (16S rRNA cDNA/DNA, RT-qPCR) (M. leprae [3]): 0.5442%
M. leprae molecular viability (M. leprae [3]): a reduction in bacterial viability was also observed
bacillary load in footpad, median (M. leprae [3]): 7.885 × 10^4
IC50 (HepG2 cells): 21 µM

C[C@]12CCC3C(CNC4=CC(=O)CC[C@@]43C)C1CCC2C(=O)NC(c1ccc(F)cc1)c1ccc(F)cc1 (stereo partly shown) [Compound 5]
AUCinf ([1]; 1 mg/kg IV): 3,123 h·ng/g
Clobs (observed clearance) ([1]; 1 mg/kg IV): 5.34 (mL/min)/kg
F (bioavailability) ([1]; 5 mg/kg PO vs 1 mg/kg IV): 118.9%
AUCinf ([1]; 5 mg/kg PO, plasma): 18,566 h·ng/g
compound remaining in plasma after 6 h ([1]; PO administration): more than 50%
in vivo t1/2 relative to compound 1 ([1]; longer than compound 1): approximately 2.5 fold
bioavailability [1, 4]: 119%
Cmax ([1]; 5 mg/kg PO, plasma): 2210 ng/mL
Tmax ([1]; 5 mg/kg PO, plasma): 30 min
half-life ([1]; 5 mg/kg PO, plasma): 168 min
Cmax ([1]; plasma, 1 mg/kg IV): 838 ng/mL
Tmax ([1]; plasma, 1 mg/kg IV): 156 min
concentration at 6 h (in vivo): 292 ± 59 µM
effect on M. leprae viability (radiorespirometry) (M. leprae [2]; 100 µM): without significantly affecting bacterial viability
rate of NAD+ reduction, mean value (ratio absorbance T/absorbance T0) (M. leprae 3β-HSD; 100 µM): 0.9070
M. leprae molecular viability, median (16S rRNA cDNA/DNA, RT-qPCR) (M. leprae [3]): 4.205%
M. leprae molecular viability (M. leprae [3]): a reduction in bacterial viability was also observed
bacillary load in footpad, median (M. leprae [3]): 7.890 × 10^4
IC50 (HepG2 cells): 31 µM
